Here are results for one molecule from patent US6261814A, “Carboxylic acid reductase, and methods of using same” (University of Iowa Research Foundation, priority 1998, dated 2001).

Broadly, the Km is the substrate concentration at which the rate is half of its maximum.

In test [1] the target is T1, carboxylic acid reductase (aryl aldehyde oxidoreductase) (Nocardia iowensis, UniProt Q6RKB1). The test is described as follows: Substrate specificity of crude carboxylic acid reductase (100,000×g supernatant). Details: Crude enzyme preparations consisting of 100,000×g supernatants were used in this study; endogenous in cells; host or cells: Nocardia sp; NRRL 5646, crude 100,000×g supernatant. In kind it is biochemical, Nocardia sp. NRRL 5646. The protocol:
(§1) Enzyme assay. The standard aryl-aldehyde oxidoreductase assay solution contained 0.15 mM […], 1 mM ATP, and 5 mM sodium benzoate, 10 mM MgCl2 and 0.01 to 0.3 units of enzyme in 50 mM Tris-HCl buffer in a final volume of 0.7 ml. The reference cuvette contained all components except for benzoate. Enzyme reactions were initiated by adding enzyme, and they were monitored by recording the absorption decrease at 340 nm at 25° C. with a Shimadzu 160 spectrophotometer.
Crude enzyme preparations consisting of 100,000×g supernatants were used in this study. […] The relative rate of reduction for each carboxylic acid derivative is expressed as the percentage of the initial rate of benzoate reduction.
The range of oxidoreductase activities of crude, 100,000×g Nocardia extract with a variety of substrates was investigated. Various substituted 2-, 3- and 4-substituted benzoates were examined, including a range of ring-activating and ring-deactivating functional groups. Benzoates substituted with halogens, methyl, methoxy, hydroxy, acetyl, nitro, benzoyl, phenyl, and phenoxyl groups as well as aryl-ring systems containing two (naphthalene) and three (fluorene) rings, and heterocyclic aromatic acids including furoic, nicotinic and indole carboxylic acids were considered. In addition, one cinnamic acid derivative, phenyl-acetate, phenyl-malonate, phenyl-succinate and 2-phenylpropionic acid were studied.

In test [2] the target is T1, carboxylic acid reductase (aryl aldehyde oxidoreductase). The test is described as follows: Kinetic properties of the purified carboxylic acid reductase (standard enzyme assay). As to conditions: for Vmax: purified enzyme, mean of three determinations. The method, then:
as §1
Kinetic constants were obtained by fitting experimental data with the EZ-FIT program developed by Perrella (Perrella, Anal. Biochem. 174:437-447 (1987)).
S(+)-α-Methyl-4-[2-methylpropyl]-benzeneacetic acid (ibuprofen) was from Aldrich Chemical Co. R(-) isomer of ibuprofen was a gift from Dr. Ching-Shih Chen, University of Rhode Island (Chen et al., Biochim. Biophys. Acta 1033:1-6 (1990)). […] Substrate enantiopurities were checked by specific rotation determination for each isomer (Chen and Rosazza, Appl. Environ. Microbiol. 60(4):1292-1296 (1994)).

Test [3] addresses T2, oxidoreductase from Neurospora crassa (Neurospora crassa, UniProt Q7RW48).
T2 construct: host or cells: crude Neurospora crassa preparation (Eur. J. Biochem. 8:413 (1969))
T2 sequence (Q7RW48 1-1052): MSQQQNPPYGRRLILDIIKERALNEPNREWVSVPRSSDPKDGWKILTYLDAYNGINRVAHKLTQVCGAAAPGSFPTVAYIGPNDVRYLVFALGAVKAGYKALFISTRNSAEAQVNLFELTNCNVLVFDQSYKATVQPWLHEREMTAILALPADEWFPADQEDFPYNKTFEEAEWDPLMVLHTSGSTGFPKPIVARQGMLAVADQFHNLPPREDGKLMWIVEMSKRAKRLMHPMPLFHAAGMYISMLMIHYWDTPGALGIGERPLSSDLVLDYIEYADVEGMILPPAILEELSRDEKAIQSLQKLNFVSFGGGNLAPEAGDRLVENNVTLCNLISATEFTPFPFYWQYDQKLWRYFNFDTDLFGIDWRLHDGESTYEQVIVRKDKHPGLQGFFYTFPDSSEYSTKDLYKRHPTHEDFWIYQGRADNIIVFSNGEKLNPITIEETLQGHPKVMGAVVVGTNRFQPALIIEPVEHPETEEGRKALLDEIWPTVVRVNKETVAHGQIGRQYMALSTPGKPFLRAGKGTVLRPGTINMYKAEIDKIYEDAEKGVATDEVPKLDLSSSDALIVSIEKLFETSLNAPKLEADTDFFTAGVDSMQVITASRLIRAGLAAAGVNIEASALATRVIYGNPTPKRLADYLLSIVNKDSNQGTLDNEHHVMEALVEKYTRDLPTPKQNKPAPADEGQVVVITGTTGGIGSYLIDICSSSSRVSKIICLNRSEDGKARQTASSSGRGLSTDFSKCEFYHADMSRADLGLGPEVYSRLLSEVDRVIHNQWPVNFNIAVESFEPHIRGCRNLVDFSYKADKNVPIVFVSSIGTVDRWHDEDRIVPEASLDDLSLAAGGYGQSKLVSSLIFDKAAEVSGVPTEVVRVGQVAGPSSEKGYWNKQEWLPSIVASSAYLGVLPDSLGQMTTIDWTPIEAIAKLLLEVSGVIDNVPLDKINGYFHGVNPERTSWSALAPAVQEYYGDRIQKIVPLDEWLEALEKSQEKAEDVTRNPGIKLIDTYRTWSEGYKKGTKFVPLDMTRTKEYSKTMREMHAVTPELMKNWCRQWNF
Conditions: Eur. J. Biochem. 8:413 (1969); cited from earlier work.

The subject of test [4] is Nocardia sp. NRRL 5646. Nature of the test: Induction of the enzyme by benzoate in stage two cultures. It counts as cell-based. Conditions: NRRL5646, 24 h, read-out: induction of specific activity of aryl aldehyde oxidoreductase in crude extracts. The protocol: Shaken flask cultures were grown by a standard two stage incubation protocol (Betts et al., J. Med. Chem. 17:599-602 (1974)) in 200 ml of sterile medium held in stainless steel-capped 1-liter DeLong culture flasks. The medium, containing (wt/vol) 2% glucose, 0.5% yeast extract, 0.5% soybean flour, 0.5% NaCl, and 0.5% K2 HPO4 in distilled water, was adjusted to pH 7.2 with 6 N HCl, and then autoclaved at 121° C. for 20 min. Cultures were incubated by shaking at 250 rpm at 28° C. on New Brunswick Scientific, C25 Gyrotory shakers. A 10% inoculum derived from a 72-hour first-stage culture was used to initiate the second-stage culture, which was incubated as before. […] The culture was harvested 24 hours after the addition of benzoate, the cells were collected from the medium by centrifugation at 8,000×g for 20 min., and washed twice with 0.9% NaCl. Cell pellets were stored at -38° C. until needed. Typical wet cell yields by this cultivation process were approximately 25 g/liter.
As a result, it was determined that the specific activity of aryl aldehyde oxidoreductase in crude extracts of Nocardia sp. NRRL 5646 could be induced up to 10 fold by the addition of up to 5 mg/ml benzoate to the 24 hour, stage two cultures.

T1 sequence (Q6RKB1 whole entry): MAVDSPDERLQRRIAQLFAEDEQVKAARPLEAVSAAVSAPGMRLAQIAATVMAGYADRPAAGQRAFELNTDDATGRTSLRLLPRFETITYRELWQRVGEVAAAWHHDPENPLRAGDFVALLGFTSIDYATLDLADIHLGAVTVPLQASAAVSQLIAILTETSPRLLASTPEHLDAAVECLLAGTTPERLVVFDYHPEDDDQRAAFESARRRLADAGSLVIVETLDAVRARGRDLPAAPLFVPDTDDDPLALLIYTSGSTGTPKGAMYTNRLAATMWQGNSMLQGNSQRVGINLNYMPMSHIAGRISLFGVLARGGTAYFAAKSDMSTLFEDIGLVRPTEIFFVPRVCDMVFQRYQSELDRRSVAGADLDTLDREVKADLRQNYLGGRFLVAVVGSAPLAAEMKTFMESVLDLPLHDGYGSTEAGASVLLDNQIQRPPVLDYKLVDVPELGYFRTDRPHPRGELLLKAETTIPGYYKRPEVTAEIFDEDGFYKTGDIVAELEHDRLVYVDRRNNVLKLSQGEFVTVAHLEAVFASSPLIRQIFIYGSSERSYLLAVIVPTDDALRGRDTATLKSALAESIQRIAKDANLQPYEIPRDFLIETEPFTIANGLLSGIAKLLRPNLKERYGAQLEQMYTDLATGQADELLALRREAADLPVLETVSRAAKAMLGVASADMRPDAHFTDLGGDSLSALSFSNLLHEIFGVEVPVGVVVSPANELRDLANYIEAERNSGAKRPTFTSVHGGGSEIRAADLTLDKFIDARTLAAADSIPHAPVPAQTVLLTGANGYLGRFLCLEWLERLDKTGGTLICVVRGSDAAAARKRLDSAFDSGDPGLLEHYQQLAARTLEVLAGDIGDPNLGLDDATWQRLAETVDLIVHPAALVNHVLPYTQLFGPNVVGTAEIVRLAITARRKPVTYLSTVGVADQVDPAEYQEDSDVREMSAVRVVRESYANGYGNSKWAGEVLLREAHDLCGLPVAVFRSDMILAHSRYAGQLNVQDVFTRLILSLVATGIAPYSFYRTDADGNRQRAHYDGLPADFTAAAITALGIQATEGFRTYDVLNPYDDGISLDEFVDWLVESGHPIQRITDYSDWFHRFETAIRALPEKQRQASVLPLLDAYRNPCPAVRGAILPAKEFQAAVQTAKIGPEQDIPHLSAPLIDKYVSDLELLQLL

With `O=C(O)c1ccccc1` [benzoic acid], in test [1] (5 mM substrate, 0.15 mM NADPH, 1 mM ATP, 50 mM Tris-HCl pH 7.5, percentage of the initial rate of benzoate reduction), the “Relative Activity” value was found to be 100 percentage. Besides, the “quality as substrate of the enzyme (in words)” value in test [1] (substrates of Table 2) is on record as “best substrates”. Moreover, in test [1] (typical, crude enzyme, 5 mM), the “rate of benzoate reduction” value was 0.066 ΔA340 /min and the “rate of benzoate reduction (equivalent)” value is 10.6 µM/min. Also, the “inhibition of the enzyme by benzoate” value in test [2] (benzoate concentration up to 2 mM) is “no inhibition was observed”. Further, in test [2] (higher than values reported by Kato et al.), the “apparent Km relative to Km reported for the enzyme from Nocardia asteroides” value is on record as “more than 1000 fold”. This molecule also showed a turnover number in test [2] (pseudo-first order reaction conditions) of 126 min⁻¹. Also, in test [2], the Vmax was 0.902 ± 0.04 μmol/min/mg of protein. The Vmax in test [2] (listed as benzoate) is reported as 0.902±0.04 μmol/min/mg of protein. Besides, in test [3], the Km is 63 µM and the “benzoate concentration at which activity is inhibited” value was 300 µM. Also, the fold induction at 5000 µg/mL in test [4] was at most 10.
